In patent US20260297060A1, “COMPOUNDS FOR THE DEGRADATION OF MUTANT BRAF” (C4 THERAPEUTICS, INC., priority 2023, published 2026):

Key:
[1] = tested on: A375 human melanoma xenografts; assay: Example 9 efficacy study Part I in A375 human melanoma xenografts (tumor volume, T/C, TGI); assay type: in vivo, BALB/c nude mice; settings: 10 mg/kg, p.o., BID × 14 days; for Tumor Size on PG-D14: Mean ± SEM; for TGI (Tumor Growth Inhibition): PG-D14; for T/C: PG-D14, treated/control average tumor volume
Description: For efficacy study Part I, agents were tested in the A375 human melanoma xenografts. Compound 218 and Compound 157 were administered to BALB/c nude mice bearing A375 xenografts from day 0 and dosed twice a day (BID) for 14 days. Compound 218 and Compound 157 were dosed at 10 mg/kg via p.o.. Dabrafenib was administered from day 1 daily (QD) for 14 days and dosed at 100 mg/kg via p.o..
(§1) The A375 tumor cells were maintained in vitro in DMEM medium supplemented with […] and 1% Penicillin-Streptomycin at 37° C. in an atmosphere of 5% CO2 in air. The tumor cells were routinely subcultured twice weekly. The cells growing in an exponential growth phase were harvested and counted for tumor inoculation.
(§2) Each mouse was inoculated subcutaneously at the right flank with A375 cells (5×10^6) in 0.2 mL of PBS supplemented with Matrigel (PBS: Matrigel=1:1) for tumor development. Animals were grouped for the treatment when the average tumor volume reached 243 mm^3 for efficacy study part I and 413 mm^3 for the PK and PD study part I on day 15, and 271 mm^3 for efficacy part II and 443 mm^3 for the PK and PD part II on day 18, and 463 mm^3 for the PK and PD study part III on day 21. The test articles administration and the animal numbers in each group are shown in the above experimental tables.
(§3) Prior to the onset of drug treatment, mice were measured for tumor size in two dimensions using a caliper, and the tumor volume (mm^3) was calculated using formula V=0.5 a×b^2 where a and b are the long and short diameters of the tumor in mm, respectively. Mice were randomized into different treatment groups based on the tumor volume.
(§4) The major endpoint was to see if the tumor growth could be delayed or mice could be cured. The tumor size was then used for calculations of T/C value. The T/C value (in percent) is an indication of antitumor effectiveness; T and C are the mean volumes of the treated and control groups, respectively on specified day.
(§5) TGI was calculated for each group using the formula: TGI (%)=[1−(Ti−T0)/(Ci−C0)]×100; Ti is the average tumor volume of a treatment group on a given day, To is the average tumor volume of the treatment group on the day of treatment start, Ci is the average tumor volume of the vehicle control group on the same day with Ti, and C0 is the average tumor volume of the vehicle group on the day of treatment start.

BRAF V600E = assay: Pharmacodynamics of BRAF protein degradation in inoculated CNS tumors (Example 12); assay type: in vivo, human A375 CNS xenograft in mice; settings: CNS tumor-bearing mice, after administration, versus encorafenib, FIG. 51
Description: FIG. 51 is a plot showing the pharmacodynamics of BRAF protein degradation in the inoculated CNS tumors. […] The experiment was conducted as described in Example 12.

[2] = tested on: luciferase-tagged A375 human melanoma CNS tumor; assay: Survival of mice in CNS tumor study (BRAF intracranial model) (Example 12); assay type: in vivo, human A375 CNS xenograft in mice; settings: versus encorafenib
Description: FIG. 48 is the survival curve for the mice after administration of vehicle, encorafenib, Compound 26, Compound 141 in CNS tumor study. The x-axis is time measured in days and the y-axis is probability of survival. The experiment was conducted as described in Example 12.
FIG. 85 is an extended survival curve for the BRAF intracranial model experiment after administration of vehicle, encorafenib, Compound 26, and Compound 141 in the CNS tumor study. The x-axis is time measured in days and the y-axis is probability of survival. The experiment was conducted as described in Example 12.

[3] = tested on: A375 human melanoma xenografts; assay: Example 9 efficacy study Part II in A375 human melanoma xenografts (tumor volume, T/C, TGI); assay type: in vivo, BALB/c nude mice; settings: 10 mg/kg, p.o., BID × 14 days; for Tumor Size on PG-D14: Mean ± SEM; for TGI (Tumor Growth Inhibition): PG-D14; for T/C: PG-D14, treated/control average tumor volume
Description: For efficacy study Part II, agents were tested in the A375 human melanoma xenografts model. Compound 133, Compound 144 and Compound 198 were administered to BALB/c nude mice bearing A375 xenografts from day 0 and dosed twice a day (BID) for 14 days. Compound 133, Compound 144 and Compound 198 were dosed at 10 mg/kg via p.o..
as §1, §2, §3, §4, §5

| Compound | Tumor Volume Trace Over Time ([3]; Day 0, Mean ± SEM) [mm^3] | Tumor Volume Trace Over Time ([3]; Day 4, Mean ± SEM) [mm^3] | Tumor Volume Trace Over Time ([3]; Day 7, Mean ± SEM) [mm^3] | Tumor Volume Trace Over Time ([3]; Day 11, Mean ± SEM) [mm^3] | Tumor Volume Trace Over Time ([3]; Day 14, Mean ± SEM) [mm^3] | Tumor Size on PG-D14 [3] [mm^3] | TGI (Tumor Growth Inhibition) [3] [%] | T/C [3] [%] | further results |
| --- | --- | --- | --- | --- | --- | --- | --- | --- | --- |
| CCN(C)S(=O)(=O)Nc1ccc(F)c(Oc2ccc3ncc(OC4CC5(CCN(C6CCC(c7cc8c(cc7F)c(N7CCC(=O)NC7=O)nn8C)CC6)CC5)C4)nc3c2)c1C#N (single isomer, unassigned) [Compound 218, 7-[2-cyano-3-[[ethyl(methyl)sulfamoyl]amino]-6-fluoro-phenoxy]-2-[[7-[4-[3-(2,4-dioxohexahydropyrimidin-1-yl)-5-fluoro-1-methyl-indazol-6-yl]cyclohexyl]-7-azaspiro[3.5]nonan-2-yl]oxy]quinoxaline] | – | – | – | – | – | – | – | – | Tumor Volume Trace Over Time ([1]; Day 0, Mean ± SEM): 243 ± 5 mm^3; Tumor Volume Trace Over Time ([1]; Day 3, Mean ± SEM): 240 ± 21 mm^3; Tumor Volume Trace Over Time ([1]; Day 7, Mean ± SEM): 114 ± 9 mm^3; Tumor Volume Trace Over Time ([1]; Day 10, Mean ± SEM): 80 ± 9 mm^3; Tumor Volume Trace Over Time ([1]; Day 14, Mean ± SEM): 60 ± 8 mm^3; Tumor Size on PG-D14 [1]: 60 ± 8 mm^3; TGI (Tumor Growth Inhibition) [1]: 116.68%; T/C [1]: 4.47% |
| CCN(C)S(=O)(=O)Nc1ccc(F)c(Oc2ccc3ncn([C@H]4COC5(CCN(C6CC7(C6)CN(c6cc8c(cc6F)c(N6CCC(=O)NC6=O)nn8C)C7)CC5)C4)c(=O)c3c2)c1C#N [Compound 26, (3R)-3-[6-[2-cyano-3-[[ethyl(methyl)sulfamoyl]amino]-6-fluoro-phenoxy]-4-oxo-quinazolin-3-yl]-8-[2-[3-(2,4-dioxohexahydropyrimidin-1-yl)-5-fluoro-1-methyl-indazol-6-yl]-2-azaspiro[3.3]heptan-6-yl]-1-oxa-8-azaspiro[4.5]decane] | – | – | – | – | – | – | – | – | BRAF V600E levels in the brain tumor compared with encorafenib (BRAF V600E): much lower; survival of CNS tumor-bearing mice compared with encorafenib [2]: lived significantly longer |
| Cn1nc(N2CCC(=O)NC2=O)c2cc(F)c(N3CC4(CC(N5CCC6(CC5)C[C@@H](n5cnc7ccc(Oc8c(F)ccc(NS(=O)(=O)N9CC[C@@H](F)C9)c8C#N)cc7c5=O)CO6)C4)C3)cc21 [Compound 133, (3R)-N-[2-cyano-3-[3-[(3R)-8-[2-[3-(2,4-dioxohexahydropyrimidin-1-yl)-5-fluoro-1-methyl-indazol-6-yl]-2-azaspiro[3.3]heptan-6-yl]-1-oxa-8-azaspiro[4.5]decan-3-yl]-4-oxo-quinazolin-6-yl]oxy-4-fluoro-phenyl]-3-fluoro-pyrrolidine-1-sulfonamide] | 271 | 193 | 99 | 71 | 32 | 32 ± 7 | 125.20 | 2.65 | – |
| CCN(C)S(=O)(=O)Nc1ccc(F)c(Oc2ccc3ncn(C4CC5(CCN(C6CC7(C6)CN(c6cc8c(cc6F)c(N6CCC(=O)NC6=O)nn8C)C7)CC5)C4)c(=O)c3c2)c1C#N (centres unmarked) [Compound 141, 6-[2-cyano-3-[[ethyl(methyl)sulfamoyl]amino]-6-fluoro-phenoxy]-3-[7-[2-[3-(2,4-dioxohexahydropyrimidin-1-yl)-5-fluoro-1-methyl-indazol-6-yl]-2-azaspiro[3.3]heptan-6-yl]-7-azaspiro[3.5]nonan-2-yl]-4-oxo-quinazoline] | – | – | – | – | – | – | – | – | BRAF V600E levels in the brain tumor compared with encorafenib (BRAF V600E): much lower; survival of CNS tumor-bearing mice compared with encorafenib [2]: lived significantly longer |
| CO[C@@H]1CCN(S(=O)(=O)Nc2ccc(F)c(Oc3ccc4ncn([C@H]5COC6(CCN(C7CC8(C7)CN(c7cc9c(cc7F)c(N7CCC(=O)NC7=O)nn9C)C8)CC6)C5)c(=O)c4c3)c2C#N)C1 [Compound 144, (3R)-N-[2-cyano-3-[3-[(3R)-8-[2-[3-(2,4-dioxohexahydropyrimidin-1-yl)-5-fluoro-1-methyl-indazol-6-yl]-2-azaspiro[3.3]heptan-6-yl]-1-oxa-8-azaspiro[4.5]decan-3-yl]-4-oxo-quinazolin-6-yl]oxy-4-fluoro-phenyl]-3-methoxy-pyrrolidine-1-sulfonamide] | 271 | 167 | 79 | 51 | 28 | 28 ± 5 | 125.70 | 2.27 | – |
| CO[C@H]1CCN(S(=O)(=O)Nc2ccc(F)c(Oc3ccc4ncn([C@H]5COC6(CCN(C7CC8(C7)CN(c7cc9c(cc7F)c(N7CCC(=O)NC7=O)nn9C)C8)CC6)C5)c(=O)c4c3)c2C#N)C1 [Compound 157, (3S)-N-[2-cyano-3-[3-[(3R)-8-[2-[3-(2,4-dioxohexahydropyrimidin-1-yl)-5-fluoro-1-methyl-indazol-6-yl]-2-azaspiro[3.3]heptan-6-yl]-1-oxa-8-azaspiro[4.5]decan-3-yl]-4-oxo-quinazolin-6-yl]oxy-4-fluoro-phenyl]-3-methoxy-pyrrolidine-1-sulfonamide] | – | – | – | – | – | – | – | – | Tumor Volume Trace Over Time ([1]; Day 0, Mean ± SEM): 243 ± 4 mm^3; Tumor Volume Trace Over Time ([1]; Day 3, Mean ± SEM): 272 ± 12 mm^3; Tumor Volume Trace Over Time ([1]; Day 7, Mean ± SEM): 191 ± 17 mm^3; Tumor Volume Trace Over Time ([1]; Day 10, Mean ± SEM): 166 ± 15 mm^3; Tumor Volume Trace Over Time ([1]; Day 14, Mean ± SEM): 183 ± 37 mm^3; Tumor Size on PG-D14 [1]: 183 ± 37 mm^3; TGI (Tumor Growth Inhibition) [1]: 105.48%; T/C [1]: 13.68% |
| CCN(C)S(=O)(=O)Nc1ccc(F)c(Oc2ccc3ncn(C4CC5(CCN(C6CC7(CCN(c8cc9c(cc8F)c(N8CCC(=O)NC8=O)nn9C)CC7)C6)CC5)C4)c(=O)c3c2)c1C#N (centres unmarked) [Compound 198, 6-[2-cyano-3-[[ethyl(methyl)sulfamoyl]amino]-6-fluoro-phenoxy]-3-[7-[7-[3-(2,4-dioxohexahydropyrimidin-1-yl)-5-fluoro-1-methyl-indazol-6-yl]-7-azaspiro[3.5]nonan-2-yl]-7-azaspiro[3.5]nonan-2-yl]-4-oxo-quinazoline] | 271 | 192 | 93 | 60 | 58 | 58 ± 13 | 122.45 | 4.79 | – |
